Reference: patent US10538555B2, “Macrocyclic inhibitors of the PD-1/PD-L1 and CD80(B7-1)/PD-L1 protein/protein interactions” (BRISTOL-MYERS SQUIBB COMPANY, priority 2014, dated 2020)
*1 amine or outer side, *2 acyl side, *3 side chain or, on linkers, in order; H or OH if unused. Where a SMILES comes first, the peptide text is derived from it. Bridges are numbered along the chain shown (N, C = ends). [ ]: non-standard residue; d: D form. Trp(1-CH2COOH) = N[C@@H](Cc1cn(CC(=O)O)c2ccccc12)C(=O)O; Phe(4-NO2) = N[C@@H](Cc1ccc([N+](=O)[O-])cc1)C(=O)O; Phe(3,4,5-F3) = N[C@@H](Cc1cc(F)c(F)c(F)c1)C(=O)O; NMePhe(4-Me) = CN[C@@H](Cc1ccc(C)cc1)C(=O)O; NMePhe(4-F) = CN[C@@H](Cc1ccc(F)cc1)C(=O)O; d(cisHyp) = O=C(O)[C@H]1C[C@@H](O)CN1; Bta = N[C@@H](Cc1csc2ccccc12)C(=O)O; Hyp = O=C(O)[C@@H]1C[C@@H](O)CN1; NMeF = CN[C@@H](Cc1ccccc1)C(=O)O; X1 = O=C([C@H]1COCCN1[*:1])[*:2]; dHyp = O=C(O)[C@H]1C[C@H](O)CN1; NMehSer = CN[C@@H](CCO)C(=O)O; NMeNle = CCCC[C@H](NC)C(=O)O; NMeA = CN[C@@H](C)C(=O)O; Orn = NCCC[C@H](N)C(=O)O; Sar = CNCC(=O)O

Biological target: T1, Human PD-L1/PD-1 (Homo sapiens, UniProt Q9NZQ7)
T1 construct: TVMV protease cleavage site (C); made in house; host or cells: HEK293T cells
Test: HTRF Human PD-L1/PD-1 binding assay (PD-1-Ig/PD-L1-His)
Details: PD-L1-His 10 nM, PD-1-Ig 20 nM; class symbol; read-out: HTRF Human PD-L1/PD-1 Binding Assay IC50 Range
Procedure, shortened: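 Compound preincubated 15 min with PD-L1-His (10 nM final), then PD-1-Ig (20 nM final) added for 15 min in dPBS with 0.1% BSA and 0.05% Tween-20. Detection by Eu-cryptate anti-Ig (1 nM) and APC anti-His (20 nM) after 30 min; 665/620 nm HTRF ratio. Proteins expressed in HEK293T.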

T1 sequence (Q9NZQ7 with tags, fused parts or gaps): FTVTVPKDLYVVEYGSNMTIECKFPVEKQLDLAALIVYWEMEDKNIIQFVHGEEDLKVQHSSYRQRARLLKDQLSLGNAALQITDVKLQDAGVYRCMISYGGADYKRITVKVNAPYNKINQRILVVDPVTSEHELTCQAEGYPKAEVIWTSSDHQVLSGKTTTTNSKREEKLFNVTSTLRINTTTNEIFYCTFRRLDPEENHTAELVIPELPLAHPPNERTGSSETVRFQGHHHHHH

IC50 [µM] | SMILES
0.01 to 0.0999 | CCCC[C@H]1C(=O)N[C@@H](CC(C)C)C(=O)N[C@H](C(=O)NCC(N)=O)CSCC(=O)N[C@@H](Cc2ccc(O)cc2)C(=O)N(C)[C@@H](C)C(=O)N[C@@H](CC(N)=O)C(=O)N2CCC[C@H]2C(=O)N[C@@H](Cc2c[nH]cn2)C(=O)N[C@@H](CCC(N)=O)C(=O)N2C[C@H](O)C[C@H]2C(=O)N[C@@H](Cc2c[nH]c3ccccc23)C(=O)NCC(=O)N[C@@H](Cc2c[nH]c3ccccc23)C(=O)N(C)[C@@H](CCOC)C(=O)N1C [Example 10137] ({CH2CO}-Y[NMeA]NPHQ[Hyp]WGW[NMehSer](Me)[NMeNle]LCG-NH2; thioether N-14)
0.01 to 0.0999 | CCCC[C@H]1C(=O)N(C)CC(=O)N[C@@H](CC(=O)O)C(=O)N[C@@H](C(C)C)C(=O)N(C)[C@@H](Cc2ccccc2)C(=O)N[C@@H](Cc2ccc(O)cc2)C(=O)N(C)CC(=O)N[C@@H](Cc2c[nH]c3ccccc23)C(=O)N[C@@H](Cc2ccc(O)cc2)C(=O)N[C@@H](CC(C)C)C(=O)N[C@H](C(=O)NCC(N)=O)CSCC(=O)N[C@@H](Cc2ccc([N+](=O)[O-])cc2)C(=O)N(C)[C@@H](Cc2ccccc2)C(=O)N1C [Example 3244] ({CH2CO}-[Phe(4-NO2)][NMeF][NMeNle][Sar]DV[NMeF]Y[Sar]WYLCG-NH2; thioether N-13)
0.01 to 0.0999 | CCCC[C@H]1C(=O)N(C)[C@@H](CCCC)C(=O)N[C@@H](C)C(=O)N[C@H](C(=O)NCC(N)=O)CSCC(=O)N[C@@H](Cc2ccc(O)cc2)C(=O)N(C)[C@@H](C)C(=O)N[C@@H](CC(N)=O)C(=O)N2CCC[C@H]2C(=O)N[C@@H](Cc2cnc[nH]2)C(=O)N[C@@H](CCC(N)=O)C(=O)N2C[C@H](O)C[C@H]2C(=O)N[C@@H](Cc2c[nH]c3ccccc23)C(=O)N[C@@H](CO)C(=O)N[C@@H](Cc2csc3ccccc23)C(=O)N1C [Example 1542] ({CH2CO}-Y[NMeA]NPHQ[Hyp]WS[Bta][NMeNle][NMeNle]ACG-NH2; thioether N-14)
0.001 to 0.0099 | CCCC[C@H]1C(=O)N2C[C@H](O)C[C@@H]2C(=O)N[C@@H](CC(=O)O)C(=O)N[C@@H](C(C)C)C(=O)N(C)[C@@H](Cc2ccccc2)C(=O)N[C@@H](CCC(=O)O)C(=O)N2CCOC[C@@H]2C(=O)N[C@@H](Cc2c[nH]c3ccccc23)C(=O)N[C@@H](Cc2ccc(O)cc2)C(=O)N[C@@H](CCC(N)=O)C(=O)N[C@H](C(=O)NCC(N)=O)CSCC(=O)N[C@@H](Cc2cc(F)c(F)c(F)c2)C(=O)N(C)[C@@H](Cc2ccc(F)cc2)C(=O)N1C [Example 10595] ({CH2CO}-[Phe(3,4,5-F3)][NMePhe(4-F)][NMeNle][d(cisHyp)]DV[NMeF]E[X1]WYQCG-NH2; thioether N-13)
0.1 to 0.99 | CCCC[C@H]1C(=O)N2C[C@@H](O)C[C@@H]2C(=O)N[C@@H](CC(=O)O)C(=O)N[C@@H](C(C)C)C(=O)N(C)[C@@H](Cc2ccc(C)cc2)C(=O)N[C@@H](CCCN)C(=O)N2CCC[C@@H]2C(=O)N[C@@H](Cc2c[nH]c3ccccc23)C(=O)N[C@@H](Cc2ccc(O)cc2)C(=O)N[C@@H](CCCN)C(=O)N[C@H](C(=O)NCC(N)=O)CSCC(=O)N[C@@H](Cc2cc(F)c(F)c(F)c2)C(=O)N(C)[C@@H](Cc2ccccc2)C(=O)N1C [Example 10121] ({CH2CO}-[Phe(3,4,5-F3)][NMeF][NMeNle][dHyp]DV[NMePhe(4-Me)][Orn][dP]WY[Orn]CG-NH2; thioether N-13)
0.001 to 0.0099 | CCCC[C@H]1C(=O)N(C)[C@@H](CCCC)C(=O)N[C@@H](CCCNC(=N)N)C(=O)N[C@H](C(=O)NCC(N)=O)CSCC(=O)N[C@@H](Cc2ccc(O)cc2)C(=O)N(C)[C@@H](C)C(=O)N[C@@H](CC(N)=O)C(=O)N2CCC[C@H]2C(=O)N[C@@H](Cc2cnc[nH]2)C(=O)N[C@@H](CCC(=O)O)C(=O)N2C[C@H](O)C[C@H]2C(=O)N[C@@H](Cc2c[nH]c3ccccc23)C(=O)N[C@@H](CO)C(=O)N[C@@H](Cc2cn(CC(=O)O)c3ccccc23)C(=O)N1C [Example 6228] ({CH2CO}-Y[NMeA]NPHE[Hyp]WS[Trp(1-CH2COOH)][NMeNle][NMeNle]RCG-NH2; thioether N-14)
